The values below come from patent publication US9765049B2, “N-cycloalkyl-N-[(fusedphenyl)methylene]-(thio)carboxamide derivatives” (BAYER CROPSCIENCE AG, priority 2013, dated 2017).

Read-outs that look alike come from different tables or passages of the source.

A short description of data set [1]: log P by HPLC on reversed-phase column (C 18), EEC Directive 79/831 Annex V.A8. It counts as physicochemical. The settings on record: for logP: Table 1, HPLC, 40° C., 0.1% aqueous formic acid and acetonitrile. As for the experimental part: In table 1, the log P values were determined in accordance with EEC Directive 79/831 Annex V.A8 by HPLC (High Performance Liquid Chromatography) on a reversed-phase column (C 18), using the method described below: Temperature: 40° C.; Mobile phases: 0.1% aqueous formic acid and acetonitrile; linear gradient from 10% acetonitrile to 90% acetonitrile. Calibration was carried out using unbranched alkan-2-ones (comprising 3 to 16 carbon atoms) with known log P values (determination of the log P values by the retention times using linear interpolation between two successive alkanones). lambda-max-values were determined using UV-spectra from 200 nm to 400 nm and the peak values of the chromatographic signals.

The test system of another data set is Puccinia recondita. The data set can be described thus: In vivo preventive test on Puccinia recondita (brown rust on wheat). The settings on record: 500 ppm, wheat plants, preventive spray, evaluated 11 days after inoculation. As for the experimental part:
(§1) Example C: In Vivo Preventive Test on Puccinia recondita (Brown Rust on Wheat) [table] The active ingredients are made soluble and homogenized in a mixture of Dimethyl sulfoxide/Acetone/Tween®80 and then diluted in water to the desired concentration. The young plants of wheat are treated by spraying the active ingredient prepared as described above. Control plants are treated only with an aqueous solution of Acetone/Dimethyl sulfoxide/Tween® 80. After 24 hours, the plants are contaminated by spraying the leaves with an aqueous suspension of Puccinia recondita spores.

The next data set concerns Sphaerotheca fuliginea. In words: In vivo preventive test on Sphaerotheca fuliginea (powdery mildew on cucurbits). The settings on record: 500 ppm, gherkin plants, preventive spray, evaluated 15 days after inoculation. As for the experimental part: (§2) Example F: In Vivo Preventive Test on Sphaerotheca fuliginea (Powdery Mildew on Cucurbits) [table] The active ingredients are made soluble and homogenized in a mixture of Dimethyl sulfoxide/Acetone/Tween®80 and then diluted in water to the desired concentration. The young plants of gherkin are treated by spraying the active ingredient prepared as described above. Control plants are treated only with an aqueous solution of Acetone/Dimethyl sulfoxide/Tween® 80. After 24 hours, the plants are contaminated by spraying the leaves with an aqueous suspension of Sphaerotheca fuliginea spores.

The subject of another data set is Botrytis cinerea. The data set can be described thus: In vivo preventive test Botrytis cinerea (grey mould). The following applies: gherkin plants. Here is the method: as §2, with “B:” for “F:”, “Botrytis cinerea (Grey Mould)” for “on Sphaerotheca fuliginea (Powdery Mildew on Cucurbits)”, “Botrytis cinerea” for “Sphaerotheca fuliginea”, “spores. The contaminated gherkin plants are incubated for 4 to 5 days at 17° C. and at 90% relative humidity.” for “spores.”

Another data set relates to Septoria tritici. The data set can be described thus: In vivo preventive test on Septoria tritici (wheat). The settings on record: 500 ppm, wheat plants, preventive spray, evaluated 24 days after inoculation. As for the experimental part: as §1, with “E:” for “C:”, “Septoria tritici (Wheat)” for “Puccinia recondita (Brown Rust on Wheat)”, “Septoria tritici” for “Puccinia recondita”, “spores. The contaminated wheat plants are incubated for 72 hours at 18° C. and at 100% relative humidity and then for 21 days at 20° C. and at 90% relative humidity.” for “spores.”

In the next data set the test system is Uromyces appendiculatus. The data set can be described thus: In vivo preventive test on Uromyces appendiculatus (bean rust). The following applies: bean plants. As for the experimental part:
(§3) Example G: In Vivo Preventive Test on Uromyces appendiculatus (Bean Rust) [table] The active ingredients are made soluble and homogenized in a mixture of Dimethyl sulfoxide/Acetone/Tween®80 and then diluted in water to the desired concentration. The young plants of bean are treated by spraying the active ingredient prepared as described above. Control plants are treated only with an aqueous solution of Acetone/Dimethyl sulfoxide/Tween® 80. After 24 hours, the plants are contaminated by spraying the leaves with an aqueous suspension of Uromyces appendiculatus spores.

For a further data set, the system named is Alternaria brassicae. In words: In vivo preventive test on Alternaria brassicae (leaf spot on radish). The following applies: 500 ppm, radish plants, preventive spray, evaluated 6 days after inoculation. Here is the method:
as §3, with “A:” for “G:”, “Alternaria brassicae (Leaf Spot on Radish)” for “Uromyces appendiculatus (Bean Rust)”, “radish” for “bean”, “Alternaria brassicae” for “Uromyces appendiculatus”, “spores. The contaminated radish plants are incubated for 6 days at 20° C. and at 100% relative humidity.” for “spores.”

A further data set relates to Pyrenophora teres. In words: In vivo preventive test on Pyrenophora teres (net blotch on barley). The following applies: 500 ppm, barley plants, preventive spray, evaluated 14 days after inoculation. As for the experimental part:
Example D: In Vivo Preventive Test on Pyrenophora teres (Net Blotch on Barley) [table] The active ingredients are made soluble and homogenized in a mixture of Dimethyl sulfoxide/Acetone/Tween®80 and then diluted in water to the desired concentration. The young plants of barley are treated by spraying the active ingredient prepared as described above. Control plants are treated only with an aqueous solution of Acetone/Dimethyl sulfoxide/Tween® 80. After 24 hours, the plants are contaminated by spraying the leaves with an aqueous suspension of Pyrenophora teres spores.

For data set [2], the system named is Fusarium nivale (var. majus). In words: Efficacy against Fusarium nivale (var. majus) (wheat), curative test. The class given is in vivo. The settings on record: for Efficacy: evaluated 5 days after inoculation. Here is the method: Example I: Efficacy Against Fusarium nivale (Var. Majus) (Wheat) [table] To produce a suitable preparation of active compound, 1 part by weight of active compound or active compound combination is mixed with the stated amounts of solvent and emulsifier, and the concentrate is diluted with water to the desired concentration. […] After the spray coating has dried on, the plants remain in a greenhouse under translucent incubation cloches at a temperature of approximately 10° C. and a relative atmospheric humidity of approximately 100%.

The subject of another data set is Pyricularia oryzae. It counts as in vivo. The settings on record: dose 500 ppm, rice plants, preventive spray, evaluated 6 days after inoculation.
Setting [3] is: Table B, 500 ppm, preventive spray, evaluated 4 to 5 days after inoculation.
[4] abbreviates: Table G, 500 ppm, preventive spray, evaluated 11 days after inoculation.

Broadly, the logP is the decadic logarithm of the partition coefficient of the neutral form, usually between octanol and water. With `Cn1nc(C(F)F)c(C(=S)N(Cc2cccc3c2C2CCC3C2=C(Cl)Cl)C2CC2)c1F` (stereo not drawn) [I.11], the logP in data set [1] was 5.23. Moreover, the Efficacy with Puccinia recondita is given as 88%; with Sphaerotheca fuliginea, 100%; in the data set on Botrytis cinerea (setting [3]) it was 100%; in the data set with Septoria tritici, 100%; in the data set on Uromyces appendiculatus (setting [4]), 84%.

For the compound `Cn1nc(C(F)F)c(C(=S)N(Cc2cccc3c2C2CCC3C2)C2CC2)c1F` (stereo not drawn) [I.02], the logP in [1] is recorded as 4.64. In addition, the Efficacy with Puccinia recondita stood at 97%; with Sphaerotheca fuliginea it was 100%; in the data set on Botrytis cinerea (setting [3]), 97%; with Septoria tritici, 100%; in the data set with Alternaria brassicae, 79%; in the data set with Uromyces appendiculatus (setting [4]) it was 100%.

With `Cn1cc(C(=O)N(Cc2cccc3c2C2CCC3C2=C(Cl)Cl)C2CC2)c(C(F)F)n1` (stereo not drawn) [I.07], in [1], the logP was found to be 4.13. The Efficacy with Sphaerotheca fuliginea is on record as 98%; in the data set with Septoria tritici, 97%; in the data set with Alternaria brassicae it was 97%; in the data set with Pyrenophora teres, 97%.

Regarding `Cn1nc(C(F)F)c(C(=O)N(Cc2cccc3c2C2CCC3C2)C2CC2)c1F` (stereo not drawn) [I.01], in [1], the logP is 3.87. Also, the Efficacy is on record as 100% in data set [2] (dose 250 ppm); 100% in data set [2] (dose 500 ppm); 98% in the data set with Puccinia recondita; 100% with Sphaerotheca fuliginea; 98% in the data set with Botrytis cinerea (Table B2, dose 100 ppm); 100/100 with Botrytis cinerea (Table B2, dose 500 ppm). The Efficacy is 100% with Botrytis cinerea (setting [3]); 100% in the data set on Septoria tritici; 81% in the data set on Alternaria brassicae; 100% in the data set on Pyrenophora teres; 75% with Pyricularia oryzae; “at least 70%” with Pyricularia oryzae (listed as 1.01). In addition, the Efficacy is given as 99% in the data set on Uromyces appendiculatus (Table G2, dose 100 ppm) and “at least 95%” in the data set with Uromyces appendiculatus (Table G2, dose 100 ppm, listed as 1.01). Moreover, the protection result was “total protection” in data set [2] (dose of 250 ppm and 500 ppm); “at least 98%” with Botrytis cinerea (dose of 100 ppm and 500 ppm).

Broadly, the chromatographic logP is lipophilicity estimated from chromatographic retention. The low end stands for a more hydrophilic compound, the high end for a more lipophilic compound. With `Cn1nc(C(F)F)c(C(=O)N(Cc2cccc3c2C2CCC3C2=C(Cl)Cl)C2CC2)c1F` (stereo not drawn) [I.08, N-cyclopropyl-N-([9-(dichloromethylene)-1,2,3,4-tetrahydro-1,4-methanonaphthalen-5-yl]methyl)-3-(difluoromethyl)-5-fluoro-1-methyl-1H-pyrazole-4-carboxamide], in data set [1], the chromatographic logP amounted to 4.51. In addition, the Efficacy in the data set on Puccinia recondita stood at 83%; in the data set on Sphaerotheca fuliginea, 100%; in the data set with Botrytis cinerea (setting [3]), 100%; in the data set on Septoria tritici, 100%; in the data set with Alternaria brassicae, 100%; with Pyrenophora teres it was 97%.

As for `Cn1nc(C(F)F)c(C(=O)N(Cc2cccc3c2C2C=CC3C2)C2CC2)c1F` (stereo not drawn) [I.04], the log partition coefficient (logP) in [1] is 3.55. For the same compound, the Efficacy was determined as 100% with Sphaerotheca fuliginea; 97% in the data set with Botrytis cinerea (setting [3]); 98% in the data set with Septoria tritici; 83% with Alternaria brassicae; 100% with Pyrenophora teres.

Take `Cn1nc(C(F)F)c(C(=S)N(Cc2cccc3c2C2CCC3C2=C(Cl)Cl)C2CC2)c1Cl` (stereo not drawn) [I.09]: the logP in data set [1] came to 5.39. Moreover, the Efficacy in the data set on Sphaerotheca fuliginea was 98%; in the data set with Uromyces appendiculatus (setting [4]), 78%.
